In US20240336643A1, “BIFUNCTIONAL COMPOUNDS THAT DEGRADE ALK AND USES THEREOF” (DANA-FARBER CANCER INSTITUTE, INC., priority 2021, published 2024):
Read-outs that look alike come from different tables or passages of the source. Blank lines part the entries; values can stand above or below the compound they belong to.

How the values were obtained:
[1] = target: BAF3 Cells with Variant 3 EML4-ALK^G1202R (Homo sapiens, UniProt Q9UM73, G1202R, cells depend on it); conditions: read-out: BAF3 Cells with Variant 3 EML4-ALK^G1202R (IC50)
[2] = target: BAF3 Cells with Variant 3 EML4-ALK^WT (Homo sapiens, UniProt Q9UM73); conditions: read-out: BAF3 Cells with Variant 3 EML4-ALK^WT (IC50); 72 hours, CellTiter-Glo
proteins in MOLT4 cells = assay: Quantitative mass spectrometry proteomics, relative protein abundance; assay type: cell-based; conditions: 1 μM, 5 hours, cut-offs 2-fold change, p value 0.001
Method: Relative fold-change (FC) abundance of proteins in MOLT4 cells treated with compound 1 (1 μM) for 5 hours was determined using quantitative mass spectrometry proteomics (protocol was published previously: Donovan et al., Cell 183:1714-1731 (2020)). Dotted lines signify a 2-fold change in protein levels and a p value of 0.001. […] FER is a cytoplasmic tyrosine kinase and its kinase function […] for STAT3 phosphorylation in tumor cell transformation and growth, but siRNA knock down of FER leads to decreased phospho-STAT3 and reduced STAT3 activation and inhibition of tumor growth in vivo (Lennartsson et al., J. Biol. Chem. 288:15736-15744 (2013)). STAT3 activation plays a key role in several cancers, including colon cancer (Gargalionis et al., Biomedicines 9:1016 (2021)). Therefore, inhibition of STAT3 signaling through depletion of FER using a targeted protein degrader is useful in the treatment of such cancers.

Mouse oral PK study = assay type: in vivo, male C57BI/6 mice; conditions: for Vd: C57BI/6, mouse, iv, 2 mg/kg
Method: Standard oral PK studies were conducted using male C57BI/6 mice obtained from BioDuro Shanghai. […] Plasma concentrations of compound 1 reported at each of the 9 time points (5 min, 15 min, 30 min, 1 h, 2 h, 4 h, 6 h, 8 h and 24 h post dosing) are the average values from 3 test animals.

FER in HCT116 cells = target: T1, FER in HCT116 cells (Homo sapiens, UniProt P16591); assay: Western blotting for FER degradation; assay type: cell-based; conditions: various concentrations, 24 hours
T1 construct: endogenous in cells; host or cells: HCT116
Method: HCT116 cells were treated with compound 1 or a FER kinase inhibitor E260 (Elkis et al., Nat. Commun. 8:940 (2017)) at various concentrations for 24 hours, along with DMSO (not shown) and ethanol as controls (FIG. 2). 18 μg of protein was loaded in each lane and Western blotting was performed for FER, CRBN, and loading control ACTIN.

[3] = target: HiBiT G1202R Variant 1 EML4-ALK (Homo sapiens, UniProt Q9UM73, G1202R); assay type: cell-based; conditions: Ba/F3 cells, 0.0003-2 μM, 4 hours; for DC50: read-out: BAF3 Cellular Degradation - HiBiT G1202R Variant 1 EML4-ALK: DC50; for Dmax: BaF3, maximal level of degradation, read-out: BAF3 Cellular Degradation - HiBiT G1202R Variant 1 EML4-ALK: Dmax
[4] = male, C57BI/6, 10 mg/kg, PO, single dose, plasma
[5] = male, C57BI/6, IV, single 2 mg/kg, plasma

HiBiT G1202R Variant 1 EML4-ALK, sequence (Q9UM73 with tags, fused parts or gaps G1202R): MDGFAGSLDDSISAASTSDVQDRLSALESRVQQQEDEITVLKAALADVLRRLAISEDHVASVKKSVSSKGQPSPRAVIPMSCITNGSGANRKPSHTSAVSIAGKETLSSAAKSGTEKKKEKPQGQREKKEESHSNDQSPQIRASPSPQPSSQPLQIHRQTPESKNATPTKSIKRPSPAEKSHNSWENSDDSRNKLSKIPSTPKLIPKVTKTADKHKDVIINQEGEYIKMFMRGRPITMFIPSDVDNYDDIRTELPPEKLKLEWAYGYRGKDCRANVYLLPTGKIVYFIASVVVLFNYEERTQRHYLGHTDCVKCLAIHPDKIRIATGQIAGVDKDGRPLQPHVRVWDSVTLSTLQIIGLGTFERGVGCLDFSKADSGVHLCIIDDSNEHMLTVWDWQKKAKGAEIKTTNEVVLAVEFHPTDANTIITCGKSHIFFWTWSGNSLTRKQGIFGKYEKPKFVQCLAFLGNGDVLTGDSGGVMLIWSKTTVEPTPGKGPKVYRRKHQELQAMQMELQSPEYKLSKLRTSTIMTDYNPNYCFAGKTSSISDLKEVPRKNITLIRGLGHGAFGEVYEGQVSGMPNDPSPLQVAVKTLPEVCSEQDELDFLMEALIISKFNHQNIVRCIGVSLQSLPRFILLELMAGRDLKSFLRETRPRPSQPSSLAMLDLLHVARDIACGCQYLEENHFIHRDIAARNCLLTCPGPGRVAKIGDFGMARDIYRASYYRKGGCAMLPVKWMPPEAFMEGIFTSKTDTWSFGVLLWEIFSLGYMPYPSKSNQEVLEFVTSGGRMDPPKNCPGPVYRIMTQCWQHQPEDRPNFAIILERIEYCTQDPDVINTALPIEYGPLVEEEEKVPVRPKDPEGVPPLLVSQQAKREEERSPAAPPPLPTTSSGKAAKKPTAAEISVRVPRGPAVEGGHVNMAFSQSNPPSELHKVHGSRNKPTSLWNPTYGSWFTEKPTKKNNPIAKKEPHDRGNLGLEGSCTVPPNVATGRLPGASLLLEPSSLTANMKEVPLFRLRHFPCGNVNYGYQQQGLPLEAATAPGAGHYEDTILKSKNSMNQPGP
HiBiT G1202R Variant 1 EML4-ALK, sequence (Q96SW2 whole entry partner): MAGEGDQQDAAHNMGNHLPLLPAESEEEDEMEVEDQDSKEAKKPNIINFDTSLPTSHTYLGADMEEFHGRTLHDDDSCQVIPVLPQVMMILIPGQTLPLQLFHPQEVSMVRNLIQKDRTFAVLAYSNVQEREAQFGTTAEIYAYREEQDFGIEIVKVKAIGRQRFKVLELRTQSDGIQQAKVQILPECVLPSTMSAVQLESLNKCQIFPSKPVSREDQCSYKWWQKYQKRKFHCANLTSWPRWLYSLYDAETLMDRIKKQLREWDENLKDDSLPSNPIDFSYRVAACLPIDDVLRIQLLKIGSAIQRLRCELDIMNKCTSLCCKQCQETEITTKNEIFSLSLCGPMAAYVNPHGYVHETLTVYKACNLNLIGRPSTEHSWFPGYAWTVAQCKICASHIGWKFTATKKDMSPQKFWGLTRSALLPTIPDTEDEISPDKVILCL
HiBiT G1202R Variant 1 EML4-ALK, sequence (Q3U1J4 whole entry partner): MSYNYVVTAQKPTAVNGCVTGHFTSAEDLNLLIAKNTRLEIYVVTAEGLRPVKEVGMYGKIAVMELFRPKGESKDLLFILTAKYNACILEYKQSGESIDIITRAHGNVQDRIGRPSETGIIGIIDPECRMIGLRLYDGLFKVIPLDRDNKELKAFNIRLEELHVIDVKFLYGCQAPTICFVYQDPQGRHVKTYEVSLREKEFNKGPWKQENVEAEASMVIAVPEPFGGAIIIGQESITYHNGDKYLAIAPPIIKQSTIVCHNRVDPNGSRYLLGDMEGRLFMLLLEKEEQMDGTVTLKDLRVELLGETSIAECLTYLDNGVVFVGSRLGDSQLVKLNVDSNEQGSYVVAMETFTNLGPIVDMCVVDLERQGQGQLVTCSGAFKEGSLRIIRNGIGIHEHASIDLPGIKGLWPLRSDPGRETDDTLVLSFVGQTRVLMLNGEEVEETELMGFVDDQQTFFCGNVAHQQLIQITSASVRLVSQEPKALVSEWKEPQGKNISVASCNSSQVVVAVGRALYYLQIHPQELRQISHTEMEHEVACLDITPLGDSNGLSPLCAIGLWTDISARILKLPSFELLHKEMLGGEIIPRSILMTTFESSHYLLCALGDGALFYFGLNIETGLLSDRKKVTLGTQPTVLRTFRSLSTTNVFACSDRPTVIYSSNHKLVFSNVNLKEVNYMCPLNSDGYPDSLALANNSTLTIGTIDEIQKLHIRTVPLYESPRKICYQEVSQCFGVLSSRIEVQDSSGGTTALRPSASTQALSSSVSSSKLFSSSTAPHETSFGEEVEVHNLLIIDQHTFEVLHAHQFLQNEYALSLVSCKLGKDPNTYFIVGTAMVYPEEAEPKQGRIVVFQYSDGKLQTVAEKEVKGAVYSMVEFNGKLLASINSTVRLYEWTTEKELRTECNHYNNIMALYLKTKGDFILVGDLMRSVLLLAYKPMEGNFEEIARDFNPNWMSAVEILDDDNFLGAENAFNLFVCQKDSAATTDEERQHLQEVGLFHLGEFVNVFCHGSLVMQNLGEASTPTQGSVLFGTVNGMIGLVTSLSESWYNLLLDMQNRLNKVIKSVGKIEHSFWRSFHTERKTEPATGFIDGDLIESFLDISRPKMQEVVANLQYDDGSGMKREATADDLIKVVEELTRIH
BAF3 Cells with Variant 3 EML4-ALK^G1202R, sequence (Q9UM73 whole entry G1202R): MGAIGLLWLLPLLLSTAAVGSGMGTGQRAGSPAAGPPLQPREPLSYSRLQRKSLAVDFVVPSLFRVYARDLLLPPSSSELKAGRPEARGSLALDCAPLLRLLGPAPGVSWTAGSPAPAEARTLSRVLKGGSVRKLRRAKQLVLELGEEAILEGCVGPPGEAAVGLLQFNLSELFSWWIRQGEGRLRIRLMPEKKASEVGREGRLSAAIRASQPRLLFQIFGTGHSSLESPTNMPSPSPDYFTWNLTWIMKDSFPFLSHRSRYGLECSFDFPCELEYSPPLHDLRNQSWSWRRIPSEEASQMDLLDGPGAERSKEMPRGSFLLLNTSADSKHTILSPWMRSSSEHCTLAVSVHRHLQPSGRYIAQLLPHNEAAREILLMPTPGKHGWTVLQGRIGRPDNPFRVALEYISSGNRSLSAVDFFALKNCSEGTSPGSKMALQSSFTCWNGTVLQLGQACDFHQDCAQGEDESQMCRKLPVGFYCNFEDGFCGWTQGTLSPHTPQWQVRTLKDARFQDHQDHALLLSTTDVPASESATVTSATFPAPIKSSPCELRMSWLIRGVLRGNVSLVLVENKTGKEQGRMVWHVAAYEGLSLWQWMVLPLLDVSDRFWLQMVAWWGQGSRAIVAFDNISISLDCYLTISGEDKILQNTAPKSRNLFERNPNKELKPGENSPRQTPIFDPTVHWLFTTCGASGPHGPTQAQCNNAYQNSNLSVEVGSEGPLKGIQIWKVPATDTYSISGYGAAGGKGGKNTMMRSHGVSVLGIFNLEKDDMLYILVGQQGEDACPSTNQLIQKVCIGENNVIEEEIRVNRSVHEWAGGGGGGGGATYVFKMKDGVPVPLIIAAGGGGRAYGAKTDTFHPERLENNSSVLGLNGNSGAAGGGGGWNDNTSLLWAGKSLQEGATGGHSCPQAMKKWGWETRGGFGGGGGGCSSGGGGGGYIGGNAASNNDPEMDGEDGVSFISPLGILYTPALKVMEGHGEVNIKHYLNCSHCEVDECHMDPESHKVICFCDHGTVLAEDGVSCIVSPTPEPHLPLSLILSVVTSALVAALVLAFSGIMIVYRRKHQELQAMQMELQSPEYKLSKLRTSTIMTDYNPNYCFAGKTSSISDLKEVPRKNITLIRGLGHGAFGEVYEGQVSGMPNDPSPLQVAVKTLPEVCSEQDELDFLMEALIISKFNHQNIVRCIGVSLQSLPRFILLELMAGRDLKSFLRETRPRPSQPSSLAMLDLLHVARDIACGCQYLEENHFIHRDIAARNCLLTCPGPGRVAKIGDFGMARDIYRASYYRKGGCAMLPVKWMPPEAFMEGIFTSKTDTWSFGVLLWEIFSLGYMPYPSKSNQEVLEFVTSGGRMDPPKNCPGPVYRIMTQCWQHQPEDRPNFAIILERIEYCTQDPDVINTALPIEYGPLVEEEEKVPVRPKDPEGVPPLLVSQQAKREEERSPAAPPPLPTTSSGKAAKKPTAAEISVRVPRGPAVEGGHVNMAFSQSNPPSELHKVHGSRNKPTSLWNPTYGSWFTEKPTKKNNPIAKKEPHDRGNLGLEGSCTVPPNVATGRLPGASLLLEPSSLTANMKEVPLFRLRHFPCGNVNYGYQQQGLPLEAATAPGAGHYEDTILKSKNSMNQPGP
T1 sequence (P16591 whole entry): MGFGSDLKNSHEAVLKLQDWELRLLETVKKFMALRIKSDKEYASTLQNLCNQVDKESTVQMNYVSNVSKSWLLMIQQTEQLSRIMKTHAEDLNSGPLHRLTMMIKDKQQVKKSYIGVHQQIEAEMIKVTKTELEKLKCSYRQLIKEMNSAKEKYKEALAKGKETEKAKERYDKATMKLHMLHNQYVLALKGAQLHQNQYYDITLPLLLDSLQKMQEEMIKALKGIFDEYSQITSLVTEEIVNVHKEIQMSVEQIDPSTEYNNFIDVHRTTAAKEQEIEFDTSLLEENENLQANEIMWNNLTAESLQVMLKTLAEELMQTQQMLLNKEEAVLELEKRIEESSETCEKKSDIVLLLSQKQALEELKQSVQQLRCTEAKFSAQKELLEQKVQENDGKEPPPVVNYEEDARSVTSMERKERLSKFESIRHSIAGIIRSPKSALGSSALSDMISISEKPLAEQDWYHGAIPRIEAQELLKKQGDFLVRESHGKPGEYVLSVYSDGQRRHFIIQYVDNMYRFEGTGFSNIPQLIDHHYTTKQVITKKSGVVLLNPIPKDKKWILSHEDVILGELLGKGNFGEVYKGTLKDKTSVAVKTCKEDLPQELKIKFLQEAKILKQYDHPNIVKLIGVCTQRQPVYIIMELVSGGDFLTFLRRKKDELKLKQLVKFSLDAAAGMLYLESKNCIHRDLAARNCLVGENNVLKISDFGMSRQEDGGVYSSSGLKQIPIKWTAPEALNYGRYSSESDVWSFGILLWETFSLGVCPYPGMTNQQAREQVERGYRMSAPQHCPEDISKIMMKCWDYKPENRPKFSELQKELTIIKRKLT
BAF3 Cells with Variant 3 EML4-ALK^WT, sequence (Q9UM73 whole entry, stated change not applied): as the sequence (Q9UM73 whole entry G1202R) above, with R1202G counted along it

SMILES: COc1cc(N2CCC(N3CCN(C)CC3)CC2)ccc1Nc1ncc(Cl)c(Nc2ccccc2P(C)(C)=O)n1 [Brigatinib]
- GI50 ([1]; baf3 cells with variant 3 eml4-alk^g1202r): 183 nM

SMILES: Cc1cc(Nc2ncc(Cl)c(Nc3ccccc3S(=O)(=O)C(C)C)n2)c(OC(C)C)cc1C1CCNCC1 [Ceritinib]
- GI50 [2]: 85 nM
- GI50 ([1]; 72 hours, CellTiter-Glo): 357 nM

SMILES: COc1cc(C2CCN(C[C@H]3CCN(c4ccc5c(c4)C(=O)N(C4CCC(=O)NC4=O)C5=O)C3)CC2)c(C)cc1Nc1ncc(Cl)c(Nc2ccccc2S(=O)(=O)C(C)C)n1 (stereo partly drawn) [Compound 8, 5-[(3R)-3-[(4-{4-[(5-chloro-4-{[2-(propane-2-sulfonyl)phenyl]amino}pyrimidin-2-yl)amino]-5-methoxy-2-methylphenyl}piperidin-1-yl)methyl]pyrrolidin-1-yl]-2-(2,6-dioxopiperidin-3-yl)-2,3-dihydro-1H-isoindole-1,3-dione]
- DC50 [3]: 124 nM

SMILES: CNC(=O)c1ccccc1Nc1nc(Nc2cc(C)c(C3CCN(CC4CCN(c5ccc6c(c5)C(=O)N(C5CCC(=O)NC5=O)C6=O)CC4)CC3)cc2OC)ncc1C(F)(F)F (stereo not drawn) [Compound 17, 2-{[2-({4-[1-({1-[2-(2,6-dioxopiperidin-3-yl)-1,3-dioxo-2,3-dihydro-1H-isoindol-5-yl]piperidin-4-yl}methyl)piperidin-4-yl]-2-methoxy-5-methylphenyl}amino)-5-(trifluoromethyl)pyrimidin-4-yl]amino}-N-methylbenzamide]
- DC50 [3]: 23 nM
- Dmax [3]: 77%

SMILES: CNC(=O)c1ccccc1Nc1nc(Nc2cc(C)c(C3CCN(CC4CN(c5ccc6c(c5)C(=O)N(C5CCC(=O)NC5=O)C6=O)C4)CC3)cc2OC(C)C)ncc1C(F)(F)F (stereo not drawn) [Compound 18, 2-{[2-({4-[1-({1-[2-(2,6-dioxopiperidin-3-yl)-1,3-dioxo-2,3-dihydro-1H-isoindol-5-yl]azetidin-3-yl}methyl)piperidin-4-yl]-5-methyl-2-(propan-2-yloxy)phenyl}amino)-5-(trifluoromethyl)pyrimidin-4-yl]amino}-N-methylbenzamide]
- DC50 [3]: 71 nM
- Dmax [3]: 68%

SMILES: CNC(=O)c1ccccc1Nc1nc(Nc2cc(C)c(C3CCN(CC4CCN(c5ccc6c(c5)C(=O)N(C5CCC(=O)NC5=O)C6=O)CC4)CC3)cc2OC(C)C)ncc1C(F)(F)F (stereo not drawn) [Compound 19, 2-{[2-({4-[1-({1-[2-(2,6-dioxopiperidin-3-yl)-1,3-dioxo-2,3-dihydro-1H-isoindol-5-yl]piperidin-4-yl}methyl)piperidin-4-yl]-5-methyl-2-(propan-2-yloxy)phenyl}amino)-5-(trifluoromethyl)pyrimidin-4-yl]amino}-N-methylbenzamide]
- DC50 [3]: 114 nM
- Dmax [3]: 55%

SMILES: COc1cc(CN2CCC(O)(c3ccc4c(c3)CN(C3CCC(=O)NC3=O)C4=O)CC2)c(C)cc1Nc1ncc(Cl)c(Nc2ccccc2S(=O)(=O)C(C)C)n1 (stereo not drawn) [Compound 26, 3-(5-(1-(4-((5-chloro-4-((2-(isopropylsulfonyl)phenyl)amino)pyrimidin-2-yl)amino)-5-methoxy-2-methylbenzyl)-4-hydroxypiperidin-4-yl)-1-oxoisoindolin-2-yl)piperidine-2,6-dione]
- DC50 [3]: 147 nM
- Dmax [3]: 62%

Now from value to compound, other results behind:

- AUCExtr (Mouse oral PK study; IV, single 2 mg/kg, plasma): 1.65%
- F (Mouse oral PK study; PO versus IV): 28.0%
- AUCExtr (Mouse oral PK study; PO, single dose, plasma): 5.08%
- AUCInf/D (Mouse oral PK study; PO, single dose, plasma): 0.605 hr*kg*nM/nmol
- AUC(0-inf) (Mouse oral PK study; [4]): 7.08 µM·h
- AUC(0-t) (Mouse oral PK study; [4]): 6.73 µM·h
- Cmax (Mouse oral PK study; [4]): 658 nM
- MRT inf (Mouse oral PK study; [4]): 8.51 h
- Tmax (Mouse oral PK study; [4]): 1.67 h
- half-life (Mouse oral PK study; [4]): 5.37 h
- AUC(0-inf) (Mouse oral PK study; [5]): 5.05 µM·h
- AUC(0-t) (Mouse oral PK study; [5]): 4.97 µM·h
- C0 (Mouse oral PK study; [5]): 2340 nM
- MRT inf (Mouse oral PK study; [5]): 4.95 h
- clearance (Mouse oral PK study; [5]): 7.73 mL/min/kg
- half-life (Mouse oral PK study; [5]): 4.41 h
- Vd (Mouse oral PK study; male, plasma, IV, single 2 mg/kg, plasma, read-out: Vss): 2.29 L/kg
- Vd (Mouse oral PK study; male, plasma, IV, single 2 mg/kg, plasma, read-out: Vz): 2.95 L/kg
- Downregulation of FER (Western blot) (FER in HCT116 cells): significantly downregulated FER
SMILES: COc1cc(C2CCN(CC3CN(c4ccc5c(c4)C(=O)N(C4CCC(=O)NC4=O)C5=O)C3)CC2)c(C)cc1Nc1ncc(Cl)c(Nc2ccccc2S(=O)(=O)C(C)C)n1 (stereo not drawn) [Compound 1, 5-{3-[(4-{4-[(5-chloro-4-{[2-(propane-2-sulfonyl)phenyl]amino}pyrimidin-2-yl)amino]-5-methoxy-2-methylphenyl}piperidin-1-yl)methyl]azetidin-1-yl}-2-(2,6-dioxopiperidin-3-yl)-2,3-dihydro-1H-isoindole-1,3-dione]
- Relative fold-change abundance of proteins (downregulated proteins) (proteins in MOLT4 cells): downregulated PLK4, CAMK1D, FAK2, RSK1, ACK1 and FER
- In vivo metabolic stability, plasma exposure and clearance (in words) (Mouse oral PK study; conclusion from Table 3): good in vivo metabolic stability, plasma exposure, and slow clearance rate

- DC50 [3]: 10 nM
- Dmax [3]: 76%
SMILES: COc1cc(C2CCN(CCC3CN(c4ccc5c(c4)C(=O)N(C4CCC(=O)NC4=O)C5=O)C3)CC2)c(C)cc1Nc1ncc(Cl)c(Nc2ccccc2S(=O)(=O)C(C)C)n1 (stereo not drawn) [Compound 2]

- DC50 [3]: 41 nM
- Dmax [3]: 86%
SMILES: COc1cc(C2CCN(C[C@@H]3CCN(c4ccc5c(c4)C(=O)N(C4CCC(=O)NC4=O)C5=O)C3)CC2)c(C)cc1Nc1ncc(Cl)c(Nc2ccccc2S(=O)(=O)C(C)C)n1 (stereo partly drawn) [Compound 9]

- DC50 [3]: 79 nM
SMILES: COc1cc(C2CCN(CC3CC4(C3)CN(c3ccc5c(c3)C(=O)N(C3CCC(=O)NC3=O)C5=O)C4)CC2)c(C)cc1Nc1ncc(Cl)c(Nc2ccccc2S(=O)(=O)C(C)C)n1 (stereo not drawn) [Compound 16, 5-(6-((4-(4-((5-chloro-4-((2-(isopropylsulfonyl)phenyl)amino)pyrimidin-2-yl)amino)-5-methoxy-2-methylphenyl)piperidin-1-yl)methyl)-2-azaspiro[3.3]heptan-2-yl)-2-(2,6-dioxopiperidin-3-yl)isoindoline-1,3-dione]

- DC50 [3]: 6 nM
- Dmax [3]: 82%
SMILES: CCc1cc2c(cc1C#CCCCN1CCC(c3ccc4c(c3)CN(C3CCC(=O)NC3=O)C4=O)CC1)C(C)(C)c1[nH]c3cc(C#N)ccc3c1C2=O (stereo not drawn) [Compound 22]

- DC50 [3]: 95 nM
- Dmax [3]: 63%
SMILES: CCc1cc2c(cc1N1CC(CN3CCC(c4ccc5c(c4)CN(C4CCC(=O)NC4=O)C5=O)CC3)C1)C(C)(C)c1[nH]c3cc(C#N)ccc3c1C2=O (stereo not drawn) [Compound 23]
